Holding throughout (experiment): cells
Parameters in all cases: CellTiter-Glo 2.0 luminescence proliferation/viability assay, single agents, human tumour cell line panel

Test [1] deals with CFPAC-1. The settings on record: Homo sapiens, CFPAC-1, 96 h; single agent; read-out: IC50 SMACm. Summed up:
(§1)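 Human tumour cell lines were seeded into assay plates and held at 37°C with 5% CO2 for twenty-four hours, then exposed in triplicate to rising concentrations of the SMAC mimetic, from 4.5 nM to 10 μM, with DMSO as control. After 96 h, viability was read as CellTiter-Glo2.0 luminescence to derive single-agent IC50 values.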

Test [2] deals with COCM1. The conditions noted are these: CoCM-1, 96 h; single agent; read-out: IC50 SMACm. Summed up:
as §1

For test [3], the system named is RCM-1. The settings on record: Homo sapiens, RCM-1, 96 h; single agent; read-out: IC50 SMACm. Summed up: as §1
Test [4] deals with SNU1684. The settings on record: 96 h; single agent; read-out: IC50 SMACm. Summed up: as §1

Structures are written as SMILES. pIC50: −log10 of the molar value.

The record followed here is PMC12490239, “Combining BET inhibition with SMAC mimetics restricts tumor growth and triggers immune surveillance in preclinical cancer models” (Cell Reports Medicine, 2025).

In general, pIC50 refers to −log10 of the IC50, conventionally taken in molar units. `CN[C@@H](C)C(=O)Nc1ccc(-c2c(-c3cccnc3OC)nc3cc(C)ccn23)c(C#Cc2ccc3c(C)nccc3c2)n1` [SMACm, BI 891065]: the negative logarithm of the IC50 (pIC50) was 5.70 in test [1], 5.12 in test [2], 5.24 in test [3] and 5.49 in test [4].
